Assays:
[1] = tested on: platelets (platelet-rich plasma), agglutination induced by arachidonic acid; assay: Inhibition of platelet agglutination induced by arachidonic acid (rat PRP, aggligometer); type: cell-based; settings: 37° C., arachidonic acid 1 mM, 50% effective concentration from onset time of agglutination vs control group
Description: (§1) Blood was collected from the abdominal aorta of a sacrificed rat. The obtained blood was then mixed with a solution of 3.9% sodium citrate at a ratio of one part by volume of sodium citrate solution to nine parts by volume of the blood. The mixture was […] at 116×g for 10 minutes to give a platelet-rich plasma (PRP). The supernatant was further centrifuged at 1,638×g for 10 minutes to give a platelet-poor plasma (PPP). The PRP was diluted with the PPP so as to give a platelet concentration of […].
(§2) The agglutination of platelets was determined with an aggligometer (RINKADENKI HUSM type). Sample solutions of 25 μl were obtained by dissolving each test compound in methanol and adding the resulting solution to a physiological saline solution so as to give a final methanol concentration of 1%. These sample solutions were then added to 225 μl of PRP preliminarily maintained at 37° C. while stirring at 800 rpm. Three minutes thereafter, 50 μl of an agglutination inducer was added thereto while continuously stirring.
Arachidonic acid, when employed as the agglutination inducer, was added at a concentration of 1 mM. The 50% effective concentration of each test compound was calculated by comparing the onset time from the addition of the arachidonic acid to the initiation of the agglutination with that of the control group.

[2] = tested on: platelets (platelet-rich plasma), agglutination induced by collagen; assay: Inhibition of platelet agglutination induced by collagen (rat PRP, aggligometer); type: cell-based; settings: 37° C., collagen 0.14 mg/ml, from inhibition ratio for maximum thrombotic agglutination
Description: as §1, §2
Collagen, when employed as the agglutination inducer, was added at a concentration of 0.14 mg/ml. The 50% inhibition concentration of each test compound was calculated from the inhibition ratio thereof for the maximum thrombotic agglutination.

CCC=CC(=O)NCCSSCCNC(=O)C=CCC [Compound 1, [SCH2 CH2 NH--COCH=CHCH2 CH3]2]
IC50 [1]: 13 µM
IC50 [2]: 15 µM

CCCC=CC(=O)NCCSSCCNC(=O)C=CCCC [Compound 2, [SCH2 CH2 NH--COCH=CH(CH2)2 CH3]2]
IC50 [1]: 6.7 µM
IC50 [2]: 4 µM

CCCCC=CC(=O)NCCSSCCNC(=O)C=CCCCC [Compound 3, [SCH2 CH2 NH--COCH=CH(CH2)3 CH3]2]
IC50 [1]: 17 µM
IC50 [2]: 26 µM

CCCCCC=CC(=O)NCCSSCCNC(=O)C=CCCCCC [Compound 4, [SCH2 CH2 NH--COCH=CH(CH2)4 CH3]2]
IC50 [1]: 135 µM
IC50 [2]: 290 µM

From patent US4916130A, “Platelet agglutination-inhibiting agent” (Green Cross Corporation, priority 1987, dated 1990)
